Laboratory results published in ChEMBL document CHEMBL1201862, “PubChem BioAssay data set” (2004).
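Cultured in 96-well plates, cells were exposed to test compound for 48 hours across five concentrations. GI50: concentration for 50% inhibition of growth.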 Active and inactive are the calls of the source. Cut-off read from the data, not from the text of the source: active = GI50 up to about 1.1 µM and inactive = higher.

Experiments:
Assay in all cases: NCI anticancer screen, dose series, 48 h
[1] = tested on: U-251
[2] = tested on: NCI-H522
[3] = tested on: LOX IMVI
[4] = tested on: IGROV-1
[5] = tested on: HT-29
[6] = tested on: MDA-N
[7] = tested on: NCI-H226
[8] = tested on: SN12C
[9] = tested on: NCI-H23
[10] = tested on: OVCAR-5
[11] = tested on: SK-MEL-5
[12] = tested on: UACC-62
[13] = tested on: A498
[14] = tested on: MDA-MB-231
[15] = tested on: NCI/ADR-RES
[16] = tested on: Malme-3M
[17] = tested on: HCC 2998
[18] = tested on: COLO 205
[19] = tested on: SF-539

Measured: GI50

CC(CCc1nc2ccccc2s1)(c1ccc(O)cc1)c1ccc(O)cc1
inactive: [1] 14.6 µM | [2] 15 µM | [3] 16 µM | [4] 14.2 µM | [5] 20.1 µM | [6] 16.5 µM | [7] 22.3 µM | [8] 17.9 µM | [9] 17.6 µM | [10] 18.1 µM | [11] 18.4 µM | [12] 15.9 µM | [13] 20.7 µM | [14] 17.9 µM | [15] 25.4 µM | [16] 16.5 µM | [17] 19.7 µM

CC(O)/C=C/C1OC(=O)CC1Nc1ccc(C=O)cc1 (stereo not given)
inactive: [1] 77.6 µM | [3] > 100 µM | [4] 91.2 µM | [5] 41.7 µM | [6] > 100 µM | [7] > 100 µM | [8] > 100 µM | [9] 59 µM | [10] > 100 µM | [18] 42.9 µM | [11] 16.6 µM | [12] 23.7 µM | [13] > 100 µM | [14] > 100 µM | [19] 87.1 µM | [15] > 100 µM | [16] > 100 µM | [17] > 100 µM

CC(C)(C)c1ccc2c(c1)C#Cc1cc3c(cc1OCCCO2)C#Cc1cc(C(C)(C)C)ccc1OCCCO3
inactive: [1] > 100 µM | [2] > 100 µM | [3] > 100 µM | [4] > 100 µM | [5] > 100 µM | [6] > 100 µM | [8] > 100 µM | [9] 2.2 µM | [10] > 100 µM | [18] > 100 µM | [11] > 100 µM | [12] > 100 µM | [13] > 100 µM | [14] > 100 µM | [19] > 100 µM | [15] 10.6 µM | [16] > 100 µM | [17] > 100 µM

COc1cccc(CCCNC(=O)Cc2ccccc2CO)c1
inactive: [1] > 100 µM | [3] > 100 µM | [4] > 100 µM | [5] > 100 µM | [6] > 100 µM | [7] > 100 µM | [8] > 100 µM | [9] > 100 µM | [10] > 100 µM | [18] > 100 µM | [11] > 100 µM | [12] > 100 µM | [13] > 100 µM | [14] > 100 µM | [19] > 100 µM | [15] > 100 µM | [16] > 100 µM | [17] > 100 µM

COc1cc(/C=C2\C(=O)N(Cc3ccccc3)C(c3ccccc3)S2(=O)=O)cc(OC)c1OC (stereo not given)
inactive: [1] 92.3 µM | [2] 14.2 µM | [3] 27.5 µM | [5] 51.6 µM | [6] 61.8 µM | [7] 50.6 µM | [8] 74 µM | [9] 33.4 µM | [10] > 100 µM | [18] 21.3 µM | [11] 12 µM | [12] 35.2 µM | [13] 21.4 µM | [14] > 100 µM | [15] 27.6 µM | [16] 39.9 µM | [17] > 100 µM

CCN1CCC(O)(c2ccc(Oc3ccccc3)cc2)C(C(=O)c2ccc(Oc3ccccc3)cc2)C1 (stereo not given)
inactive: [1] 11.6 µM | [2] 19.6 µM | [3] 3.84 µM | [4] 15.4 µM | [5] 6.98 µM | [6] 13.8 µM | [8] 15.3 µM | [9] 13.4 µM | [10] 15.4 µM | [18] 13.6 µM | [11] 12.5 µM | [12] 13.2 µM | [13] 14 µM | [14] 14.6 µM | [19] 8.45 µM | [15] 16.2 µM | [16] 17.1 µM | [17] 6.62 µM

CNC(=O)OCC1=C(COC(=O)NC)C(C)N(c2ccccc2)C1 (stereo not given)
inactive: [1] 31.8 µM | [3] 32.7 µM | [4] 26.2 µM | [5] 22.6 µM | [6] 33.8 µM | [7] 11.3 µM | [8] 72.9 µM | [9] 38.1 µM | [10] 25.4 µM | [18] 21.2 µM | [11] 17.1 µM | [12] 26.2 µM | [13] 3.05 µM | [14] 41.2 µM | [19] 23.3 µM | [15] 46.5 µM | [16] 33.9 µM | [17] 25.2 µM

CC(C#N)Nc1ccc(Oc2ccc(C(C)(C)c3ccc(Oc4ccc(NC(C)C#N)cc4)cc3)cc2)cc1 (stereo not given)
inactive: [1] > 100 µM | [3] > 100 µM | [4] > 100 µM | [5] > 100 µM | [6] > 100 µM | [7] > 100 µM | [8] > 100 µM | [9] 40.9 µM | [10] > 100 µM | [18] > 100 µM | [11] 50.6 µM | [12] > 100 µM | [13] > 100 µM | [14] > 100 µM | [19] > 100 µM | [15] > 100 µM | [16] > 100 µM | [17] 22.3 µM

COCCNC1CCC(=O)c2[nH]c3ccccc3c21 (stereo not given)
inactive: [1] > 100 µM | [2] > 100 µM | [3] 94.4 µM | [4] > 100 µM | [5] > 100 µM | [6] > 100 µM | [7] > 100 µM | [8] > 100 µM | [9] > 100 µM | [10] > 100 µM | [18] > 100 µM | [11] > 100 µM | [13] > 100 µM | [14] > 100 µM | [19] > 100 µM | [15] > 100 µM | [16] > 100 µM | [17] > 100 µM

CCCc1cc(O)c2c(C)c3[nH]c4ccc(Cl)cc4c3c(C)c2n1
inactive: [1] 1.69 µM | [2] 1.87 µM | [3] 1.82 µM | [4] 2.13 µM | [5] 1.77 µM | [6] 1.9 µM | [7] 2.81 µM | [8] 2.36 µM | [9] 2.91 µM | [10] 2.46 µM | [18] 2 µM | [11] 9.68 µM | [13] 1.49 µM | [14] 1.85 µM | [19] 1.92 µM | [15] 3.21 µM | [16] 10.7 µM | [17] 1.62 µM

CC(=O)O[C@H]1[C@@H]2OC(=O)[C@@](O)(CC3CCCO3)[C@@H]2CC(=O)[C@](C)(O)CC/C=C(\C)CCC[C@@H]1C (stereo not given in full)
inactive: [1] 69.8 µM | [2] 25.8 µM | [3] 20.8 µM | [4] 46.5 µM | [6] 20.6 µM | [7] 15.6 µM | [8] 30.4 µM | [10] > 100 µM | [18] 18.6 µM | [11] 43.6 µM | [12] 67.3 µM | [13] > 100 µM | [14] 20.7 µM | [19] 19.1 µM | [15] 57.9 µM | [16] 41.2 µM | [17] > 100 µM

COc1ccc(/C=C2\N=C3Sc4c([nH]cnc4=O)N3C2=O)cc1
inactive: [1] > 100 µM | [2] > 100 µM | [3] > 100 µM | [4] > 100 µM | [5] > 100 µM | [6] > 100 µM | [7] > 100 µM | [8] > 100 µM | [9] > 100 µM | [10] > 100 µM | [18] > 100 µM | [11] > 100 µM | [13] > 100 µM | [14] > 100 µM | [19] > 100 µM | [15] > 100 µM | [16] > 100 µM | [17] 13.1 µM

O=C(O)c1ccc(Nc2ccnc3cc(Cl)ccc23)cc1O
inactive: [1] 95.1 µM | [2] > 100 µM | [3] > 100 µM | [4] > 100 µM | [5] > 100 µM | [6] > 100 µM | [7] > 100 µM | [8] > 100 µM | [9] > 100 µM | [10] > 100 µM | [18] > 100 µM | [11] > 100 µM | [12] > 100 µM | [13] > 100 µM | [14] > 100 µM | [19] 11.1 µM | [15] > 100 µM | [16] > 100 µM | [17] 39.6 µM

Cc1ccc(S(=O)(=O)NN=C2C(C)CC(C(C)(C)C)CC2C)cc1 (stereo not given)
inactive: [1] 17.7 µM | [2] 18.6 µM | [3] 17.9 µM | [4] 38.9 µM | [5] 18.5 µM | [6] 19.3 µM | [7] 19 µM | [8] 18.4 µM | [9] 24.4 µM | [10] 17.5 µM | [18] 18.4 µM | [11] 17.3 µM | [12] 32.3 µM | [13] 17.4 µM | [14] 28.6 µM | [19] 95.1 µM | [15] 31.6 µM | [16] 17.8 µM | [17] 17.7 µM

COc1ccc(/C=C2\CCCCCC2=O)cc1
inactive: [1] > 100 µM | [2] > 100 µM | [3] > 100 µM | [4] > 100 µM | [5] > 100 µM | [6] > 100 µM | [7] > 100 µM | [8] > 100 µM | [9] > 100 µM | [10] > 100 µM | [18] > 100 µM | [11] > 100 µM | [12] > 100 µM | [13] > 100 µM | [14] > 100 µM | [19] > 100 µM | [15] > 100 µM | [16] > 100 µM | [17] > 100 µM
